Data on one substance can be found in US11246899B2, “Urtica dioica extracts and methods of isolating urtica dioica extracts” (SynHiTech Inc., priority 2018, dated 2022).

The experiment has as its system Type 2 diabetic patients. In words: Clinical study in Type 2 diabetic patients, blood glucose by glucometer and side effects. It is filed as in vivo, human. How it is done:
The effect of the Urdi-1 extract was tested on six Type 2 diabetic patients. The consents were filled by patients and were reviewed by the ethical committee of Tehran Hospital. The UD1-extract (20 mg of Urdi-1) was taken orally as one or two dosages per day. Blood glucose was measured by glucometer as fasted or after dining. After getting the promising data at the animal level, we tested the efficacy of Urdi-1 in Type 2 diabetic patients. Six patients (Patient I to VI) with high level of blood glucose consented to participate in the study (Table 2). These patients were selected different sex (male and female) with varying age ranging from mid forty to late sixty. As the level of the referral blood glucose and the medication administrated by their physicians were different data of each patient is presented individually.

Setting [1] is: Patient I, after insulin two weeks then Glibenclamide and metformin for one month.
Where [2] appears, read: Patient IV, after insulin 17 days then Glibenclamide and metformin for two weeks.

Regarding Glibenclamide and metformin, under setting [1], the fasting blood glucose result is on record as “about 175 mg/dL” and the night blood glucose is given as ~225 mg/dL. Also, under setting [2], the fasting blood glucose entry is listed as “about 90 mg/dL” and the night blood glucose was ~220 mg/dL.
